In one series the target is T1, soybean 15-LOX (Glycine max, UniProt P08170).
T1 sequence (P08170 1-839): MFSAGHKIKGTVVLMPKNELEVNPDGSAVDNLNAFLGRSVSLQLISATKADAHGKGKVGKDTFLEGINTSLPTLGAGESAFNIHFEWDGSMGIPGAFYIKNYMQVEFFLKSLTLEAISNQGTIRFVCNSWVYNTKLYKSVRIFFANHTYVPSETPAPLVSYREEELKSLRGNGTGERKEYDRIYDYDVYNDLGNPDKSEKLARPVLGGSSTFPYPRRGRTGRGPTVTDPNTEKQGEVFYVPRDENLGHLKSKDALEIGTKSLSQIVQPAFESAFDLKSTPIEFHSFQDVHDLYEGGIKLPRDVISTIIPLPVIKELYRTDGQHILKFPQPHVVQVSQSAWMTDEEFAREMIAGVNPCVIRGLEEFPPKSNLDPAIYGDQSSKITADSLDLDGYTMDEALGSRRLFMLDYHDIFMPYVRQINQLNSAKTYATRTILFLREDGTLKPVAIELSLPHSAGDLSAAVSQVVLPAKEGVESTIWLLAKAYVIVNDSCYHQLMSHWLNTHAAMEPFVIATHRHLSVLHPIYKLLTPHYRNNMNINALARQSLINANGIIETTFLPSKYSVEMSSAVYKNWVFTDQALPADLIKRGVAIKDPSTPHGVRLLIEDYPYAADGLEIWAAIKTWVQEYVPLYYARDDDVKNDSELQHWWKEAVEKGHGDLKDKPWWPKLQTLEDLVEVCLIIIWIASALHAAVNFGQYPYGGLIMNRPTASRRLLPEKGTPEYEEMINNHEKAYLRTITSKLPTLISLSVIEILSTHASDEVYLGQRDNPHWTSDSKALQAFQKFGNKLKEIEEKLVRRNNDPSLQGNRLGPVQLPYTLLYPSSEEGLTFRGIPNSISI
The experiment in a line: soybean 15-LOX inhibition assay. It is filed as biochemical. As to conditions: for inhibition at 250 µM: read-out: inhibition (%) at 0.25 mM.

Series [1] deals with blood mononuclear cells (MNCs). The experiment in a line: MTT cell viability assay. It is filed as cell-based, human. The settings on record: MTT assay, 0.25 mM, mononuclear cells; mean ± SEM, n = 3. (In general: Formazan colour is commonly taken as a measure of viable cells.)
A short description of the next series: MTT cell viability assay. The settings on record: human, blood mononuclear cells (MNCs). The format is cell-based, human.

Where two headings read alike, the source gives them in different places.

For “2-((5-(4-Chlorophenyl)-4-(furan-2-ylmethyl)-4H-1,2,4-triazol-3-yl)thio)-N-(m-tolyl) Methylacetamide [Compound 7f]”, the “inhibition (%) at 0.25 mM” value at soybean 15-LOX (0.25 mM, mean ± SEM, n = 3) was found to be 82.13 ± 1.85%. In addition, on soybean 15-LOX (mean ± SEM, n = 3), the IC50 was determined as 45.4 ± 0.72 µM. Further, in series [1], the “cell viability (%) at 0.25 mM” value is on record as 90.21 ± 1.2%.

Consider `O=c1cc(-c2ccccc2)oc2cc(O)c(O)c(O)c12` [baicalein, reference compound], for which half-maximal inhibition at soybean 15-LOX (IC50) required 2.24 ± 0.13 µM.

In the series “MTT cell viability assay”, `COc1cc(/C=C/C(=O)CC(=O)/C=C/c2ccc(O)c(OC)c2)ccc1O` [curcumin, reference compound] returned a viability at 0.25 mM of 73.9 ± 1.5%.

For the compound `O=P1(N(CCCl)CCCl)NCCCO1` (stereo not shown) [cyclophosphamide, reference compound], the viability at 0.25 mM in “MTT cell viability assay” was determined as 56.5 ± 1.9%.

As for `O=c1c(O)c(-c2ccc(O)c(O)c2)oc2cc(O)cc(O)c12` [quercetin, reference compound], on soybean 15-LOX, the inhibition at 250 µM stood at 92.6 ± 1.24%.

`CCCNC(=O)C(C)Sc1nnc(-c2ccc(Cl)cc2)n1Cc1ccco1` (stereo not shown) [Compound 7b, 2-((5-(4-Chlorophenyl)-4-(furan-2-ylmethyl)-4H-1,2,4-triazol-3-yl)thio)-N-n-propylmethylacetamide]: on soybean 15-LOX, the IC50 came out at 26.3 ± 0.62 µM and the inhibition at 250 µM amounted to 89.3 ± 1.55%. The viability at 0.25 mM in “MTT cell viability assay” is 90.1 ± 1.1%.

A word on the IC50: it is the concentration at which inhibition is half-maximal. Low values mean inhibition by little substance, high ones a need for much substance. The term viability denotes the share of living cells, or the viability signal relative to a control. The low end stands for more harm to the cells, the high end for less harm to the cells. One may read the inhibition as the change of the read-out against control, counted positive when it falls.

Source of the values: paper PMC9202051 (ACS Omega, 2022).
